These are literature values, as cited in patent US20020151447A1, “Reduced toxicity 1-bromopropane cleaning agent production process” (POLYMER SOLVENTS, INC., priority 1997, published 2002).

For data set [1] the following is noted: 8 hour workday.
In the next data set the test system is mammals. The conditions noted are these: in vivo.

As for `CCCBr` [1-bromopropane], in data set [1], the “workplace exposure limit for handlers” value is 100 ppm. Moreover, in the data set with mammals, the toxicity to mammals entry is “relatively low toxicity”.
